The source of these data is patent US6849607B2, “Galectin recognized photosensitizers for photodynamic therapy” (Health Research, Inc., priority 2001, dated 2005).

One assay has as its target Gal-1 (Homo sapiens, UniProt P09382). Description: Gal-1 inhibition binding, indirect ELISA (Gal-1-HRP conjugate on asialofetuin-coated wells). As for the experimental part: Cell. Biochem., 43, 43-57, 1990) to eliminate the thiol requirement for retention of carbohydrate-binding activity. Coupling of alkylated galaptin to Horseradish peroxidase (HRP) was carried out by a two-step glutaraldehyde procedure as described by Engvall (Engvall E., Enzyme Immunoassay ELISA and EMIT, Methods in Enzymology, 70, 419-439, 1980). The galactin-peroxidase conjugate was prepared in 50% glycerol-1% BSA and stored at -20° C. until use. The binding of the Gal-1 to photosensitizers with and without the galactose moiety was measured by an indirect ELISA method as described by Chen et al. […] The microtiter wells (Dynatech Laboratories, Chantilly, Va.) were coated with 2 μg asial fetuin (Sigma) in 100 μl of 0.1M sodium carbonate, 0.2% NaN3, pH 9.6 at 37° C. for 3h. The plates were tightly covered with parafilm and stored at 4° C. for use within three weeks. The optimal dilution for Gal-1HRP conjugate was determined by checker-board titration. For studying the effect of saccharides and their conjugates, 60 μl aliquots of diluted Gal-1-HRP conjugate containing 1.4 μg of Gal-1 were mixed separately in duplicate with 60 μl dilute buffer as well as serially diluted test compounds and incubated for 1 h at 37° C. A 100 μl aliquot was transferred to the microtiter wells, which had been coated with […] Fetuin, blocked and washed. The plates were then incubated for 1 h at 37° C. followed by color development with ABTS (Kirkegaard & Perry lab. Gaithersburg, Md.) and reading at 405 nm on an ELISA reader.
(ELISA stands for enzyme-linked immunosorbent assay.)

Another assay relates to B16-F1 cells. Description: In vitro photosensitizing efficacy in B16-F1 cells, low Gal-1 expression (MTT). The format is cell-based. The note with it: free lactose (100 μM). On the procedure: (§1) For determining photosensitizing efficacy in B16-F1 and J774A.Cell were plated at 1×10^4 and 2×10^4 cells per well respectively in 96 well plates. After overnight incubation, compounds 1 and 4 at the same concentration (0-2 μM) were added. After further 3 hr incubation, cells were washed with PBS and irradiated with white light (0-4 joules). […] The cells were then incubated in complete media for 48 hrs and assayed for survival using the standard MTT assay.

For assay [1], the system named is J774A.1 cells. Description: In vitro photosensitizing efficacy in J774A.1 cells, high Gal-1 expression (MTT). The format is cell-based. On the procedure:
as §1

Assay [2] concerns J774A.1 cells. Description: Photosensitizer uptake in J774A.1 cells (fluorescence/μg protein). The note with it: 1.0 μM, 3 and 24 hrs. Type of assay: cell-based. As for the experimental part:
In order to test the galectin-specificity of the carbohydrate conjugates, the uptake and photosensitizing efficacy of photosensitizers 1 and 4 was investigated in two cell lines; B16-F1 and J774A.1 known for low (15-20%) and high galectin-expression (80-85%) respectively 37. The cells were grown in DMEM with 10% FCS, maintained in 5% CO2, 95% air and 100% humidity. For uptake studies 1×10^6 cells were plated in 60 mm dishes. […] The cells were then gently removed from the dishes, 1.0 ml aliquots were transferred into 1 cm quartz cuvettes and their fluorescence was read on a PT1model ALBHA1 fluorimeter, at 701 nm using an excitation of wavelength of 414 nm. Protein determinations were done using Bio-rad protein assay, protein levels were determined from a standard curve. The data was represented as fluorescence/μg protein.

Another assay concerns Molt-4 cells. Put plainly: Cellular localization by fluorescence microscopy in Molt-4 cells. The format is cell-based, human. As for the experimental part: (§2) For investigating the difference in sites of localization between the photosensitizers with and without carbohydrate moieties, the fluorescence light microscopy experiments were performed in Molt-4 and RIF tumor cell lines. In a typical experiment, cells were imaged at 100× on an inverted fluorescence microscope (Carl Zeiss Inc. Axiovert 35.W.Germany) with a charged-coupled device camera (Dage-MTI, model 104722-02). Images were captured and processed by computer using Image-1 image processing software (Universal Imaging Corp., version 4.0, WestChester, Pa.). The photosensitizer fluorescence was assessed by using 530-585 nm excitation and 615 nm long-pass filter to measure emission while 338-378 nm excitation for DPH, and a 450 nm emission filter for emission (400 nm dichroic). […] In addition, […]1-(4-trimethylammonium)-6-phenyl-1,3,5-hexatriene (TMA-DPH), a hydrophobic fluorescent probe which interacts with living cells by instantaneous incorporation into plasma membrane and becomes fluorescent (Illinger, D., and Kuhry, J. G., The Kinetic Aspects of Intracellular Fluorescence Labeling with TMA-DPH Support the Maturation Model for Endocytosis in L929 Cells, The Journal of Cell Biology, 125:783-794, 1994), was added for the last 5 min of the incubation, cells were washed once with PBS and transferred to a microscope slide for imaging. […]

The subject of another assay is RIF tumor cells. Put plainly: Cellular localization in RIF tumor cells with DPH counterstain. The format is cell-based. The note with it: RIF cells (FIGS. 9a and 9b). On the procedure:
as §2

Another assay concerns RIF tumors. Description: In vivo photosensitizing efficacy (tumor re-growth assay) in mice bearing RIF tumors. On the set-up: species or system C3H/HEJ mice. To be noted: 5.0 μM/kg; for mice tumor free on day 90: light 24 h post-injection, 6 mice/group; for mice tumor free on day 90 / in vivo PDT efficacy (in words): no free lactose. On the procedure:
Both conjugated and non-conjugated photosensitizers (1-4) were evaluated for their in vivo tumor response in C3H mice implanted with RIF tumors. In brief, C3H/HEJ mice were injected intradermally with 2×10^5 RIF cells in 30 μl HBSS w/o Ca^+2 and magnesium, into the flank and allowed to grow until they were 4-5 mm in diameter. The day before tumors were treatment size, the mice were injected with 0-5 μlmoles/kg of compounds 1-4. At 24 hours post-injection the mice were anesthetized with Ketamine and Xylazine, and restrained on plastic holders, treated with laser light from an argon pumped dye laser at 700 nm for a total fluence of 135 J/cm^2 at a fluence rate of 75 mW/cm^2. The mice (6 mice/group) were checked daily, the tumors were measured using two orthogonal measurements L and W (perpendicular to L) and the volumes were calculated using the formula V=LxW ^2/2 and recorded. Mice were considered cured if there was no palpable tumor at 90 days post PDT treatment.

“And” between values parts separate entries of the source, which are not always exact repeats. Equal entries are not always repeated.

Gal-1, sequence (P09382 whole entry): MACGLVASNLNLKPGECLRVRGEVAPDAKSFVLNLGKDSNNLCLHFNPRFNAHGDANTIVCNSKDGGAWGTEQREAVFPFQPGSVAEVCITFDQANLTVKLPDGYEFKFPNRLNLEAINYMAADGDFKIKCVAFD

In the case of `C=C(C=CCO[C@@H]1O[C@H](CO)[C@@H](O[C@@H]2O[C@H](CO)[C@H](O)[C@H](O)[C@H]2O)[C@H](O)[C@H]1O)CN1C(=O)c2c3nc(cc4[nH]c(cc5nc(cc6[nH]c2c(c6C)C1=O)C(CC)=C5C)c(CC)c4C)C(C)C3CCC(=O)OC` (mixture of isomers) [4a, Lactose-Chlorin conjugate joined with diene linkage], the “increase in I50 inhibition binding affinity compared to the galactose conjugate 2” value on Gal-1 amounted to 40 fold. Moreover, the IC50 on Gal-1 (ELISA, read-out: I50, inhibition of Gal-1 binding) is 540 nM and 500 nM. Also, at 450 µM the inhibition at Gal-1 (at 450 μM) was 29%. Moreover, the “PDT efficacy on addition of free lactose” value in the assay on B16-F1 cells and with J774A.1 cells [1] (free lactose (100 μM)) was “almost completely inhibited” throughout. Also, the “phototoxicity compared to photosensitizer 1a” value with J774A.1 cells [1] (high Gal-1 expression (80-85%), 1.0 μM) is recorded as “enhanced phototoxicity”. For the same compound, the drug uptake entry in the assay with J774A.1 cells [2] was “increased uptake”. Besides, the “fluorescence in presence of free lactose” value in the assay on Molt-4 cells (lactose 100 μM) is recorded as “No fluorescence was observed”. Further, the “cellular localization with DPH as a counterstain” value with RIF tumor cells was “intense plasma membrane fluorescence”. For the same compound, in the assay on RIF tumors (free lactose 100-fold excess), the “in vivo PDT efficacy, lactose injected immediately following the drug” value is listed as “significant decrease in PDT efficacy”. For the same compound, in the assay on RIF tumors (lactose 23 hr post-injection of the conjugate), the “in vivo PDT efficacy, lactose injected 1 hour prior to light treatment” value is “quite effective”. Moreover, the “mice tumor free on day 90” value with RIF tumors is given as 3/6; with RIF tumors (listed as 4), “Three out of six”. Further, the “in vivo PDT efficacy (in words)” value in the assay on RIF tumors is listed as “quite effective”.
Regarding “Mesopurpurin-18-N-methyl-(2′-butadiene)imide [1a]”, on Gal-1 (at 450 μM), the “inhibition of Gal-1 binding” value was 29%. In the assay on Molt-4 cells (incubated for 3 hrs), the cellular localization entry is reported as “intracellular localization”. In the assay on RIF tumor cells, the “cellular localization with DPH as a counterstain” value is “diffuse intracellular localization”. Besides, in the assay with RIF tumors, the “in vivo PDT efficacy with and without lactose administration” value was “ineffective”; the “in vivo PDT efficacy (in words)” value is “inactive in vivo”.
